Holding throughout (type): cell-based, human
Data set [1] has as its system Colo320/MDR-LRP colon adenocarcinoma cell line. Briefly: MTT cytotoxicity assay on doxorubicin-resistant, ABCB1- and LRP-expressing Colo320 cells. To be noted: for IC50: Homo sapiens, COLO 320; for IC50 / Cytotoxic effect on Colo320 cells (in words): MTT; for Selectivity index SI MRC-5/Colo320: ratio of IC50 in non-tumor MRC-5 cells and IC50 in Colo320; for Cytotoxic effect on Colo320 cells (in words): up to 100 µM. As for the experimental part: (§1) The doxorubicin-sensitive Colo205 (ATCC-CCL-222) and the doxorubicin-resistant ABCB1- and LRP-expressing Colo320/MDR-LRP (ATCC-CCL-220.1) human colon adenocarcinoma cell lines were obtained from LGC Promochem in Teddington, UK. These cell lines were cultivated in RPMI 1640 medium supplemented with 10% heat-inactivated foetal bovine serum (FBS), 2 mM L-glutamine, 1 mM Na-pyruvate, 10 mM HEPES, along with nystatin, and gentamicin. The normal MRC-5 (ATCC CCL-171) human embryonic lung fibroblast cell line was purchased from Sigma-Aldrich (Merck KGaA, Darmstadt, Germany). The MRC-5 cells were cultured in EMEM medium, supplemented with 1% non-essential amino acid (NEAA) mixture, a selection of vitamins, 10% heat-inactivated FBS, 2 mM L-glutamine, 1 mM Na pyruvate, nystatin, and gentamicin. The cell lines were incubated in humidified atmosphere (5% CO2, 95% air) at 37 °C. The cells were detached with a Trypsin-Versene (EDTA) solution for 5 min at 37 °C.
(§2) The effects of increasing concentrations of the compounds on cell growth were tested in 96-well flat-bottomed microtiter plates. Namely, 1 × 10^4 of human colonic adenocarcinoma cells in 100 μL of the medium (RPMI 1640) were added to each well, except for the medium control wells. The adherent human embryonic lung fibroblast cell line was seeded in the EMEM medium for 24 h before the assay. The two-fold serial dilutions of the compounds were made in a separate plate (100–0.19 μM) and then transferred to the plates containing the cells. The starting concentration of the solvent DMSO was 2% v/v, and the highest concentration of the compounds in the plate was 100 μM. Plates were incubated at 37 °C for 24 h. At the end of the incubation, 20 μL of MTT (thiazolyl blue tetrazolium bromide) solution (from a 5 mg/mL stock solution) was added to each well. After incubation at 37 °C for 4 h, 100 μL of sodium dodecyl sulfate (SDS) solution (10% SDS in 0.01 M HCl) was added to each well, and the plates were further incubated at 37 °C overnight. Cell growth was determined by measuring the optical density (OD) at 540 nm (ref. 630 nm) with a Multiscan EX ELISA reader (Thermo Labsystems, Cheshire, WA, USA). Inhibition of cell growth was expressed as IC50 values, defined as the inhibitory dose that reduces the growth of the cells exposed to the tested compounds by 50%. IC50 values and the SD of triplicate and duplicate (in the case of MRC-5) experiments were calculated by using GraphPad Prism software version 5.00 for Windows, with a non-linear regression curve fit (GraphPad Software, San Diego, CA, USA; www.graphpad.com, accessed on 12 July 2021). Doxorubicin (from a 2 mg/mL stock solution, Teva Pharmaceuticals) was used as a positive control. […] The relative resistance (RR) was calculated as the ratio of the IC50 value in the resistant cancer cells and the IC50 value in the sensitive cancer cell lines. The selectivity indexes (SI) were calculated as the ratio of the IC50 value in the non-tumor cells and the IC50 value in the cancer cell lines. The activity of the compounds towards cancer cells is considered to be strongly selective if the selectivity index (SI) value is higher than 6, moderately selective if 3 < SI < 6, slightly selective if 1 < SI < 3, and non-selective if the SI is lower than 1 [22].

The subject of data set [2] is MRC-5 embryonic lung fibroblast cell line. The data set can be described thus: MTT cytotoxicity assay on normal MRC-5 fibroblasts. As to conditions: for IC50: Homo sapiens; for Cytotoxic effect on normal MRC-5 cells (in words): up to 100 µM. As to the method: as §1, §2
For data set [3], the system named is Colo205 colon adenocarcinoma cell line. Briefly: MTT cytotoxicity assay on doxorubicin-sensitive Colo205 cells. To be noted: for IC50: Homo sapiens, COLO 205; for IC50 / Cytotoxic effect on Colo205 cells (in words): MTT; for Selectivity index SI MRC-5/Colo205: ratio of IC50 in non-tumor MRC-5 cells and IC50 in Colo205; for Cytotoxic effect on Colo205 cells (in words): up to 100 µM. As to the method: as §1, §2

The mark [4] stands for this setting: 24 h, single experiment, read-out: IC50 Colo320, parallel experiment 1.
The mark [5] stands for this setting: 24 h, single experiment, read-out: IC50 Colo320, parallel experiment 2.
The mark [6] stands for this setting: 24 h, single experiment, read-out: IC50 Colo320, parallel experiment 3.
Where [7] appears, read: 24 h incubation, average of 3 parallel experiments, read-out: IC50 Colo320 AV ± SD.
Where [8] appears, read: MRC5, 24 h incubation, average of 2 parallel experiments, read-out: IC50 MRC-5 AV ± SD.
Where [9] appears, read: 24 h, single experiment, read-out: IC50 Colo205, parallel experiment 1.
[10] abbreviates: 24 h, single experiment, read-out: IC50 Colo205, parallel experiment 2.
The mark [11] stands for this setting: 24 h, single experiment, read-out: IC50 Colo205, parallel experiment 3.
The mark [12] stands for this setting: 24 h incubation, average of 3 parallel experiments, read-out: IC50 Colo205 AV ± SD.
[13] abbreviates: MRC5, 24 h, single experiment, read-out: IC50 MRC-5, parallel experiment 1.
Where [14] appears, read: MRC5, 24 h, single experiment, read-out: IC50 MRC-5, parallel experiment 2.

The values that follow come from article PMC11396803, “Synthesis of Tumor Selective Indole and 8-Hydroxyquinoline Skeleton Containing Di-, or Triarylmethanes with Improved Cytotoxic Activity” (Molecules, 2024).

Each structure is given as a SMILES string. Like-named read-outs stand apart in the source and are kept apart here.

`CCOC(=O)C(c1cc(Cl)c2cccnc2c1O)N1CCOCC1` (stereo not shown) [Compound 10, Ethyl 2-(5-chloro-8-hydroxyquinolin-7-yl)-2-morpholinoacetate]: the IC50 was 1.56 µM in data set [1] (setting [4]); 1.81 µM in data set [1] (setting [5]); 1.79 µM in data set [1] (setting [6]); 1.72 ± 0.14 µM in data set [1] (setting [7]); more than 100 µM in data set [2] (setting [8]); 2.07 µM in data set [3] (setting [9]). Also, the half-inhibitory concentration (IC50) in data set [3] (setting [10]) is 2.06 µM; in data set [3] (setting [11]), 2.02 µM; in data set [3] (setting [12]), 2.05 ± 0.02 µM. For the same compound, the “Selectivity index SI MRC-5/Colo320” value in data set [1] is more than 6. Also, the “Cytotoxic effect on normal MRC-5 cells (in words)” value in data set [2] is given as “no toxicity”. The “Selectivity index SI MRC-5/Colo205” value in data set [3] was more than 6.

In the case of `CCOC(=O)C(c1cc(Cl)c2cccnc2c1O)c1c[nH]c2ccccc12` (stereo not shown) [Compound 11, Ethyl 2-(5-chloro-8-hydroxyquinolin-7-yl)-2-(1H-indol-3-yl)acetate], the IC50 in data set [1] (setting [4]) worked out at 4.64 µM; in data set [1] (setting [5]), 4.83 µM; in data set [1] (setting [6]), 4.96 µM; in data set [1] (setting [7]), 4.81 ± 0.16 µM; in data set [2] (setting [13]), 54.5 µM; in data set [2] (setting [14]), 55.1 µM. Besides, the IC50 in data set [2] (setting [8]) is 54.77 ± 0.44 µM; in data set [3] (setting [9]), 5.51 µM; in data set [3] (setting [10]), 4.71 µM; in data set [3] (setting [11]), 4.42 µM; in data set [3] (setting [12]), 4.88 ± 0.56 µM. Moreover, the “Selectivity index SI MRC-5/Colo320” value in data set [1] is listed as 11.4. Further, the “Cytotoxic effect on normal MRC-5 cells (in words)” value in data set [2] is on record as “mild cytotoxic effect”. Moreover, the “Selectivity index SI MRC-5/Colo205” value in data set [3] was 11.2.

On to `Oc1c(C(c2ccccc2)c2c[nH]c3ccccc23)cc(Cl)c2cccnc12` (stereo not shown) [Compound 14, 7-((1H-indol-3-yl)(phenyl)methyl)-5-chloroquinolin-8-ol], for which the IC50 worked out at 2.55 µM in data set [1] (setting [4]); 2.84 µM in data set [1] (setting [5]); 2.78 µM in data set [1] (setting [6]); 2.72 ± 0.15 µM in data set [1] (setting [7]); 30.1 µM in data set [2] (setting [13]); 29.3 µM in data set [2] (setting [14]). The IC50 was found to be 29.7 ± 0.57 µM in data set [2] (setting [8]); 2.49 µM in data set [3] (setting [9]); 2.49 µM in data set [3] (setting [10]); 2.63 µM in data set [3] (setting [11]); 2.53 ± 0.08 µM in data set [3] (setting [12]). Further, the “Selectivity index SI MRC-5/Colo320” value in data set [1] is recorded as 11. Also, the “Cytotoxic effect on normal MRC-5 cells (in words)” value in data set [2] is on record as “mild cytotoxic effect”. In addition, the “Selectivity index SI MRC-5/Colo205” value in data set [3] is given as 11.7.

As to `CCOC(=O)C(c1cc(Cl)c2cccnc2c1O)c1c[nH]c2ncccc12` (stereo not shown) [Compound 12, Ethyl 2-(5-chloro-8-hydroxyquinolin-7-yl)-2-(7-azaindole-3-yl)acetate], the IC50 in data set [1] (setting [4]) amounted to 5.16 µM; in data set [1] (setting [5]), 4.92 µM; in data set [1] (setting [6]), 5.11 µM; in data set [1] (setting [7]), 5.06 ± 0.12 µM; in data set [2] (setting [13]) it was 46.9 µM; in data set [2] (setting [14]), 45.6 µM. The IC50 turned out to be 46.2 ± 0.95 µM in data set [2] (setting [8]); 8.05 µM in data set [3] (setting [9]); 7.42 µM in data set [3] (setting [10]); 8.84 µM in data set [3] (setting [11]); 8.11 ± 0.71 µM in data set [3] (setting [12]). The “Selectivity index SI MRC-5/Colo320” value in data set [1] is recorded as 9.1. Also, in data set [2], the “Cytotoxic effect on normal MRC-5 cells (in words)” value is on record as “mild cytotoxic effect”. In data set [3], the “Selectivity index SI MRC-5/Colo205” value is given as 5.7.

With `Oc1c(Cc2c[nH]c3ccccc23)cc(Cl)c2cccnc12` [Compound 16, 7-((1H-indol-3-yl)methyl)-5-chloroquinolin-8-ol], the IC50 in data set [1] (setting [4]) was 4.97 µM; in data set [1] (setting [5]) it was 4.74 µM; in data set [1] (setting [6]), 4.91 µM; in data set [1] (setting [7]) it was 4.87 ± 0.12 µM; in data set [2] (setting [8]), more than 100 µM; in data set [3] (setting [9]), 13.6 µM. The IC50 in data set [3] (setting [10]) stood at 13.4 µM; in data set [3] (setting [11]), 12.3 µM; in data set [3] (setting [12]), 13.1 ± 0.7 µM. In addition, the “Cytotoxic effect on Colo320 cells (in words)” value in data set [1] is given as “potent toxic activity”. The “Selectivity index SI MRC-5/Colo320” value in data set [1] was more than 6. Moreover, the “Cytotoxic effect on normal MRC-5 cells (in words)” value in data set [2] is listed as “no toxicity”. The “Selectivity index SI MRC-5/Colo205” value in data set [3] is given as more than 6.

On to `O=C1Oc2ccc3ccccc3c2C1c1c[nH]c2ccccc12` (stereo not shown) [Compound 3, 1-(1H-indol-3-yl)naphtho[2,1-b]furan-2(1H)-one], for which the IC50 in data set [1] (setting [7]), in data set [2] (setting [8]) and in data set [3] (setting [12]) was more than 100 µM throughout. In addition, in data set [1], the “Cytotoxic effect on Colo320 cells (in words)” value is recorded as “no effect”. Besides, in data set [3], the “Cytotoxic effect on Colo205 cells (in words)” value is given as “no effect”.

As to `CCOC(=O)C(c1ccc2ccccc2c1O)c1c[nH]c2ccccc12` (stereo not shown) [Compound 7, Ethyl 2-(1-hydroxynaphthalen-2-yl)-2-(1H-indol-3-yl)acetate], the half-maximal inhibitory concentration (IC50) in data set [1] (setting [4]) is 53.8 µM; in data set [1] (setting [5]) it was 54.9 µM; in data set [1] (setting [6]) it was 52.2 µM; in data set [1] (setting [7]), 53.6 ± 1.38 µM; in data set [2] (setting [8]), more than 100 µM; in data set [3] (setting [12]), more than 100 µM. Besides, in data set [3], the “Cytotoxic effect on Colo205 cells (in words)” value was “no effect”.

For the compound `Oc1c(Cc2c[nH]c3ncccc23)cc(Cl)c2cccnc12` [Compound 17, 7-((7-azaindole-3-yl)methyl)-5-chloroquinolin-8-ol], the IC50 in data set [1] (setting [4]) is 23 µM; in data set [1] (setting [5]), 21.9 µM; in data set [1] (setting [6]), 22.5 µM; in data set [1] (setting [7]), 22.5 ± 0.55 µM; in data set [2] (setting [8]), more than 100 µM; in data set [3] (setting [9]) it was 36.5 µM. Besides, the IC50 in data set [3] (setting [10]) came to 39.4 µM; in data set [3] (setting [11]), 40.4 µM; in data set [3] (setting [12]), 38.8 ± 2.03 µM.

Regarding `COc1cccc2c1C(=O)c1c(O)c3c(c(O)c1C2=O)C[C@@](O)(C(=O)CO)C[C@@H]3O[C@H]1C[C@H](N)[C@H](O)[C@H](C)O1` [DOX, Doxorubicin, reference compound], the IC50 in data set [1] (setting [4]) is 3.12 µM; in data set [1] (setting [5]), 3.12 µM; in data set [1] (setting [6]), 2.96 µM; in data set [1] (setting [7]), 3.07 ± 0.09 µM; in data set [2] (setting [8]) it was more than 8.62 µM; in data set [3] (setting [9]), 0.84 µM. Moreover, the IC50 amounted to 0.89 µM in data set [3] (setting [10]), 0.81 µM in data set [3] (setting [11]) and 0.85 ± 0.04 µM in data set [3] (setting [12]).
